Results: PubChem BioAssay (NCI)
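Dose response: 5 concentrations. Exposure: 48 h. Format: 96-well plates. Endpoint: linear interpolation; highest concentration if not reached. Definition used: TGI = concentration required for complete inhibition of growth.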

Experiments:
Experiment in all cases: growth of human tumour cells (NCI), 48 h
MALME-3M melanoma = tested on: MALME-3M melanoma
SF-268 CNS = tested on: SF-268 CNS
HS 578T breast = tested on: HS 578T breast
TK-10 renal = tested on: TK-10 renal
SNB-75 CNS = tested on: SNB-75 CNS
NCI/ADR-RES ovarian = tested on: NCI/ADR-RES ovarian
HOP-62 NSCLC = tested on: HOP-62 NSCLC
CAKI-1 renal = tested on: CAKI-1 renal
RPMI-8226 leukemia = tested on: RPMI-8226 leukemia
EKVX NSCLC = tested on: EKVX NSCLC
SK-MEL-28 melanoma = tested on: SK-MEL-28 melanoma
MDA-MB-231 breast = tested on: MDA-MB-231 breast
ACHN renal = tested on: ACHN renal
HCT-116 colon = tested on: HCT-116 colon
PC-3 prostate = tested on: PC-3 prostate
U251 CNS = tested on: U251 CNS
OVCAR-4 ovarian = tested on: OVCAR-4 ovarian
KM12 colon = tested on: KM12 colon
HT29 colon = tested on: HT29 colon
K-562 leukemia = tested on: K-562 leukemia
UACC-257 melanoma = tested on: UACC-257 melanoma
NCI-H226 lung = tested on: NCI-H226 lung
OVCAR-8 ovarian = tested on: OVCAR-8 ovarian
NCI-H522 lung = tested on: NCI-H522 lung
SW-620 colon = tested on: SW-620 colon
HCC-2998 colon = tested on: HCC-2998 colon
UO-31 renal = tested on: UO-31 renal
MDA-N = tested on: MDA-N
BT-549 breast = tested on: BT-549 breast
COLO 205 colon = tested on: COLO 205 colon
OVCAR-5 ovarian = tested on: OVCAR-5 ovarian
SK-MEL-5 melanoma = tested on: SK-MEL-5 melanoma
NCI-H23 lung = tested on: NCI-H23 lung
UACC-62 melanoma = tested on: UACC-62 melanoma
A498 renal = tested on: A498 renal
HCT-15 colon = tested on: HCT-15 colon
OVCAR-3 ovarian = tested on: OVCAR-3 ovarian
SK-MEL-2 melanoma = tested on: SK-MEL-2 melanoma
SR leukemia = tested on: SR leukemia
SF-295 CNS = tested on: SF-295 CNS
DU-145 prostate = tested on: DU-145 prostate
MCF7 breast = tested on: MCF7 breast
SN12C renal = tested on: SN12C renal
IGROV1 ovarian = tested on: IGROV1 ovarian
HL-60(TB) leukemia = tested on: HL-60(TB) leukemia
T-47D breast = tested on: T-47D breast
MOLT-4 leukemia = tested on: MOLT-4 leukemia
LOX IMVI melanoma = tested on: LOX IMVI melanoma
MDA-MB-435 = tested on: MDA-MB-435
SNB-19 CNS = tested on: SNB-19 CNS
RXF 393 renal = tested on: RXF 393 renal
786-0 renal = tested on: 786-0 renal
NCI-H460 lung = tested on: NCI-H460 lung
M14 melanoma = tested on: M14 melanoma
SK-OV-3 ovarian = tested on: SK-OV-3 ovarian
A549 NSCLC = tested on: A549 NSCLC
SF-539 CNS = tested on: SF-539 CNS
CCRF-CEM leukemia = tested on: CCRF-CEM leukemia
HOP-92 NSCLC = tested on: HOP-92 NSCLC

Which TGI (MALME-3M melanoma) does the source give for CN(C)C(=O)Oc1ccc[n+](C)c1 here?
Its TGI is > 100 µM.

And the TGI (SF-268 CNS)?
Its TGI is > 100 µM.

And the TGI (HS 578T breast)?
Its TGI is > 100 µM.

What about the TGI (TK-10 renal) of the same compound?
Its TGI is > 100 µM.

What about the TGI (SNB-75 CNS) of the same compound?
Its TGI is > 100 µM.

What about the TGI (NCI/ADR-RES ovarian) of the same compound?
Its TGI is > 100 µM.

What about the TGI (HOP-62 NSCLC) of the same compound?
The TGI was > 100 µM.

And the TGI (CAKI-1 renal)?
The TGI was > 100 µM.

And the TGI (RPMI-8226 leukemia)?
Its TGI is > 100 µM.

What about the TGI (EKVX NSCLC) of the same compound?
Its TGI is > 100 µM.

And the TGI (SK-MEL-28 melanoma)?
Its TGI is > 100 µM.

And the TGI (MDA-MB-231 breast)?
Its TGI is > 100 µM.

And the TGI (ACHN renal)?
Its TGI is > 100 µM.

And the TGI (HCT-116 colon)?
Its TGI is > 100 µM.

What about the TGI (PC-3 prostate) of the same compound?
The TGI was > 100 µM.

What about the TGI (U251 CNS) of the same compound?
The TGI was > 100 µM.

What about the TGI (OVCAR-4 ovarian) of the same compound?
The TGI was > 100 µM.

And the TGI (KM12 colon)?
The TGI was > 100 µM.

What about the TGI (HT29 colon) of the same compound?
The TGI was > 100 µM.

And the TGI (K-562 leukemia)?
The TGI was > 100 µM.

And the TGI (UACC-257 melanoma)?
Its TGI is > 100 µM.

And the TGI (NCI-H226 lung)?
The TGI was > 100 µM.

And the TGI (OVCAR-8 ovarian)?
Its TGI is > 100 µM.

What about the TGI (NCI-H522 lung) of the same compound?
The TGI was > 100 µM.

And the TGI (SW-620 colon)?
Its TGI is > 100 µM.

And the TGI (HCC-2998 colon)?
Its TGI is > 100 µM.

And the TGI (UO-31 renal)?
The TGI was > 100 µM.

And the TGI (MDA-N)?
Its TGI is > 100 µM.

And the TGI (BT-549 breast)?
Its TGI is > 100 µM.

And the TGI (COLO 205 colon)?
Its TGI is > 100 µM.

What about the TGI (OVCAR-5 ovarian) of the same compound?
The TGI was > 100 µM.

What about the TGI (SK-MEL-5 melanoma) of the same compound?
Its TGI is > 100 µM.

What about the TGI (NCI-H23 lung) of the same compound?
The TGI was > 100 µM.

What about the TGI (UACC-62 melanoma) of the same compound?
The TGI was > 100 µM.

And the TGI (A498 renal)?
The TGI was > 100 µM.

What about the TGI (HCT-15 colon) of the same compound?
Its TGI is > 100 µM.

What about the TGI (OVCAR-3 ovarian) of the same compound?
Its TGI is > 100 µM.

What about the TGI (SK-MEL-2 melanoma) of the same compound?
The TGI was > 100 µM.

What about the TGI (SR leukemia) of the same compound?
Its TGI is > 100 µM.

What about the TGI (SF-295 CNS) of the same compound?
The TGI was > 100 µM.

And the TGI (DU-145 prostate)?
The TGI was > 100 µM.

What about the TGI (MCF7 breast) of the same compound?
The TGI was > 100 µM.

And the TGI (SN12C renal)?
The TGI was > 100 µM.

And the TGI (IGROV1 ovarian)?
Its TGI is > 100 µM.

What about the TGI (HL-60(TB) leukemia) of the same compound?
The TGI was > 100 µM.

And the TGI (T-47D breast)?
The TGI was > 100 µM.

And the TGI (MOLT-4 leukemia)?
Its TGI is > 100 µM.

What about the TGI (LOX IMVI melanoma) of the same compound?
The TGI was > 100 µM.

And the TGI (MDA-MB-435)?
Its TGI is > 100 µM.

What about the TGI (SNB-19 CNS) of the same compound?
The TGI was > 100 µM.

And the TGI (RXF 393 renal)?
Its TGI is > 100 µM.

And the TGI (786-0 renal)?
The TGI was > 100 µM.

What about the TGI (NCI-H460 lung) of the same compound?
Its TGI is > 100 µM.

Which results are given for O=C1CNN=C(CSc2nc3ccc(I)cc3c(=O)n2Cc2ccccc2)N1?
TGI (MALME-3M melanoma): 54.2 µM; TGI (M14 melanoma): > 100 µM; TGI (SK-OV-3 ovarian): > 100 µM; TGI (SF-268 CNS): 57.7 µM; TGI (HS 578T breast): > 100 µM; TGI (TK-10 renal): 78.3 µM; TGI (SNB-75 CNS): 35.8 µM; TGI (A549 NSCLC): > 100 µM; TGI (NCI/ADR-RES ovarian): 77.1 µM; TGI (HOP-62 NSCLC): > 100 µM; TGI (CAKI-1 renal): 34.3 µM; TGI (RPMI-8226 leukemia): 91.9 µM; TGI (EKVX NSCLC): > 100 µM; TGI (SK-MEL-28 melanoma): 44.4 µM; TGI (MDA-MB-231 breast): 38.9 µM; TGI (ACHN renal): 31.6 µM; TGI (HCT-116 colon): 50.7 µM; TGI (PC-3 prostate): 79.6 µM; TGI (U251 CNS): 52 µM; TGI (OVCAR-4 ovarian): > 100 µM; TGI (KM12 colon): 93.2 µM; TGI (HT29 colon): > 100 µM; TGI (K-562 leukemia): > 100 µM; TGI (UACC-257 melanoma): 70.7 µM; TGI (NCI-H226 lung): 42.4 µM; TGI (OVCAR-8 ovarian): 94.7 µM; TGI (SF-539 CNS): 58.3 µM; TGI (NCI-H522 lung): 68.6 µM; TGI (SW-620 colon): > 100 µM; TGI (HCC-2998 colon): 81.7 µM; TGI (UO-31 renal): 4.37 µM; TGI (MDA-N): 87.2 µM; TGI (BT-549 breast): 86.3 µM; TGI (COLO 205 colon): 28.4 µM; TGI (OVCAR-5 ovarian): > 100 µM; TGI (SK-MEL-5 melanoma): 30.6 µM; TGI (NCI-H23 lung): > 100 µM; TGI (CCRF-CEM leukemia): 50.5 µM; TGI (UACC-62 melanoma): 32.6 µM; TGI (A498 renal): 94.1 µM; TGI (HCT-15 colon): > 100 µM; TGI (OVCAR-3 ovarian): 45.1 µM; TGI (SK-MEL-2 melanoma): 34.7 µM; TGI (SR leukemia): 92.3 µM; TGI (SF-295 CNS): 59.7 µM; TGI (DU-145 prostate): 53.4 µM; TGI (MCF7 breast): > 100 µM; TGI (SN12C renal): 34.3 µM; TGI (HOP-92 NSCLC): 72 µM; TGI (IGROV1 ovarian): 55.6 µM; TGI (HL-60(TB) leukemia): 4.03 µM; TGI (T-47D breast): 43.5 µM; TGI (MOLT-4 leukemia): > 100 µM; TGI (LOX IMVI melanoma): 33.4 µM; TGI (MDA-MB-435): 97.6 µM; TGI (SNB-19 CNS): > 100 µM; TGI (786-0 renal): > 100 µM; TGI (NCI-H460 lung): > 100 µM
